pEC50: −log10 of the molar value. Like-named read-outs stand apart in the source and are kept apart here.
How the values were obtained:
[1] = tested on: synaptosomal uptake, serotonin; experiment: Inhibition of synaptosomal uptake of serotonin; type: biochemical; conditions: rat cerebral cortex synaptosomes, 50 nM [14C]serotonin, pH 7.4, 37° C.
Method: (§1) Inhibition of the Synaptosomal Uptake of Monoamines
(§2) Crude synaptosome preparations from rat cerebral cortex were made by homogenizing the tissues in 10 volumes of ice-cold 0.32M sucrose with all-glass Potter'-Elvehjem's homogenizers. The homogenates were centrifuged at 800 g at +2° C. for 10 min. The supernatants were centrifuged at 12000 g at +2° C. for 10 min, and the pellets were rehomogenized in 0.32M sucrose to the original volume. The incubation of the preparations with [^14 C]serotonin plus [^3 H]noradrenaline with final concentrations of 50 nM of each amine was performed in a Micronic PPN Storage-Block-96 (Flow Laboratories) with 8×12 wells using two rows at each incubation. Four to five different concentrations of two test compounds in duplicates were examined at each incubation. Fifty microliters of the synaptosomal preparation, 400 μl of the Krebs-Henseleit's buffer, pH 7.4, containing 5.6 mM glucose, 1.1 mM ascorbic acid, 0.13 mM disodium edetate, and 50 μM pargyline, and 25 μl of the inhibitor or distilled water were added to the wells. The solutions were mixed by vortexing the block for 10 s. After 10-min preincubation at 37° C. in a water bath, 25 μl of the solutions of the radioactively labeled amines was added to the two rows with a Titretec Multicannel Pipette, type 12-Channel (Flow Laboratories). The reaction was immediately started by vortexing the block for 10 s on a Super-Mixer, and the incubation was continued for 2 min at 37° C. The uptake reaction was stopped by filtration and washing for 15 s with ice-cold 0.15M NaCl through a Whatman GF/B glass filter paper in a 24-channel Cell Harvester (Brandel) using the standard harvesting probe. The filters were left to dry in room temperature for about 1 h. The punched filters were transformed to counting vials, 10 mL of the scintillation liquid (Aquasol, NEN) was added, and vials were shaken and allowed to stand for 1 h before counting. The radioactivety was measured in a Packard Tri Carb liquid scintillation photometer. The active uptake of the amines was defined as the difference between the accumulation of the radioactivity in the absence (quadriplicates) and the presence (quadriplicates) of selective uptake inhibitors, determined at each incubation. These inhibitors were citalopram (0.3 μM) for the serotonin uptake and maprotiline (1 μM) for the norepinephrine uptake. The inhibition was calculated in percent of the active uptake. The IC50 values were obtained from log concentration-response curves.

[2] = tested on: synaptosomal uptake, noradrenalin; experiment: Inhibition of synaptosomal uptake of noradrenalin; type: biochemical; conditions: rat cerebral cortex synaptosomes, 50 nM [3H]noradrenaline, pH 7.4, 37° C.
Method: as §1, §2

[3] = tested on: cholinergic responses (oxotremorine-induced tremor); experiment: Potentiation of oxotremorine-induced tremor in rats; type: in vivo, rat (Sprague Dawley); conditions: for minimal effective dose: Rattus norvegicus
Method: Potentiation of cholinergic responses
Studies on oxotremorine-induced tremor in rats
Male rats (Sprague Dawley Alab Laboratorietjanst AB, Sollentuna, Sweden) weighing 150-180 g, 35-40 days of age, were used. The animals were allowed free access to food (R3, Ewos AB, Sodertalje, Sweden) and water until the start of the experiments. The test compounds were injected intraperitoneally (i.p.) 30 min before injection of oxotremorine into the neck (s.c.). Tremor intensity was assessed visually for a 60 min period following the injection of oxotremorine in rat housed in Macrolon cages (25×25×30 cm) (tree per cage). The treshold dose of oxotremorine for eliciting tremor in rat is 200 μg/kg.
Tremor intensity was scored using the following rating scale: 0=no tremor; 1=slight tremor (moderate, discontinuous tremor); 2=strong tremor (intense, continuous tremor involving the whole body). The animals were scored 5, 10, 15, 30 and 60 min after injection of oxotremorine. The tremor was scored for a period of 30 seconds.
The values for each observation were summed over the entire observation period (5-60 min) and their median values for each group were calculated (total median score). Mann-Whitney U-test (two-tailed) was used to determine differences between the control oxotremorine group and test groups receiving the compounds+oxotremorine. It should be noted that a control group receiving oxotremorine alone was always run concurrently with each compound tested.
The lowest dose causing a significant (p<0.05) potentiation of the oxotremorine response was determined from log-dose response curves.

[4] = tested on: cholinergic responses; conditions: U.S. Pat. No. 4 469 707; cited from earlier work
[5] = tested on: central nervous system; conditions: man; U.S. Pat. No. 4 237 311; cited from earlier work
[6] = tested on: neuronal 5-hydroxytryptamine (5-HT) uptake; conditions: U.S. Pat. No. 4 237 311; cited from earlier work
[7] = ip, read-out: Potentiation of OTMN tremor in rat (lowest dose causing a significant potentiation), i.p. 30 min before oxotremorine s.c., p<0.05, scored 5-60 min
[8] = ip, i.p. 30 min before oxotremorine s.c., p<0.05, scored 5-60 min, read-out: Potentiation of OTMN tremor in rat (lowest dose causing a significant potentiation)
[9] = i.p. 30 min before oxotremorine s.c., p<0.05, scored 5-60 min

Row | Compound | pEC50 [1] | pEC50 [2] | minimal effective dose [3, 7] | minimal effective dose [3, 8] | also measured
1 | CC(C)CC(N)C(=O)OC(C)(C)Cc1ccc(Cl)cc1 (centres unmarked) [Example 11, 1-(4-Chlorophenyl)-2-methyl-2-propyl 2-amino-4-methylpentanoate] | 5.10 | 5.47 | 10 mg/kg | – | –
2 | CCCC(N)C(=O)OC(C)(C)Cc1ccc(F)cc1 (centres unmarked) [Example 3, 1-(4-fluoropnenyl)-2-methyl-2-propyl 2-aminopentanoate] | 5.22 | 5.49 | – | 10 mg/kg | –
3 | CC(N)C(=O)OC(C)(C)Cc1ccc(Cl)cc1 (centres unmarked) [Alaproclate, reference compound] | 6.92 | < 5.00 | 5 mg/kg | – | effect on cholinergic responses (in words) [4]: potentiating effect on cholinergic responses; antidepressive activity (in words) [5]: antidepressive activity combined with a reduced frequency of side effects; effect on neuronal 5-HT uptake (in words) [6]: blocking the neuronal 5-hydroxytryptamine (5-HT) uptake; tremor response induced by a threshold dose of oxotremorine (in words) ([3]; threshold dose of oxotremorine): enhance the tremor response
4 | CC(C)C(N)C(=O)OC(C)(C)Cc1ccc(Cl)cc1 (single isomer, unassigned) [Example 27, 1-(4-chlorophenyl)-2-methyl-2-propyl 2-amino-3-methyl-butanoate] | 5.48 | 5.77 | – | – | Potentiation of OTMN tremor in rat (lowest dose causing a significant potentiation) [3, 9]: 10 mg/kg
5 | C=CCC(N)C(=O)OC(C)(C)Cc1ccc(Cl)cc1 (centres unmarked) [Example 5, 1-(4-Chlorophenyl)-2-methyl-2-propyl 2-amino-4-pentenoate] | 5.44 | 5.60 | – | 20 mg/kg | –
6 | C#CCC(N)C(=O)OC(C)(C)Cc1ccc(Cl)cc1 (centres unmarked) [Example 7, 1-(4-Chlorophenyl)-2-methyl-2-propyl 2-amino-4-pentynoate] | < 5.00 | < 5.00 | – | 10 mg/kg | –
7 | CC(C)C(N)C(=O)OC(C)(C)Cc1cc(Cl)cc(Cl)c1 (centres unmarked) [Example 14, 1-(3,5-Dichlorophenyl)-2-methyl-2-propyl 2-amino-3-methylbutanoate] | 5.40 | < 5.00 | – | 10 mg/kg | –
8 | CCCC(N)C(=O)OC(C)(C)Cc1ccc(Cl)cc1 (centres unmarked) [Example 4, 1-(4-Chlorophenyl)-2-methyl-2-propyl 2-aminopentanoate] | 5.64 | 5.82 | – | 2.5 mg/kg | –
9 | CC(C)C(N)C(=O)OC(C)(C)Cc1ccc(Cl)cc1 (single isomer, unassigned; (+)) [Example 26, (+)-1-(4-Chlorophenyl)-2-methyl-2-propyl 2-amino-3-methylbutanoate] | 5.06 | 5.74 | 20 mg/kg | – | –
10 | CCC(N)C(=O)OC(C)(C)Cc1ccc(Cl)cc1 (centres unmarked) [Example 1, 1-(4-Chlorophenyl)-2-methyl-2-propyl 2-aminobutanoate] | 5.55 | 5.10 | 2.5 mg/kg | – | –
11 | O=C1CCCN1CC#CCN1CCCC1 [oxotremorine, reference compound] | – | – | – | – | minimal effective dose ([3]; sc, read-out: threshold dose of oxotremorine for eliciting tremor in rat, s.c., oxotremorine alone): 0.2 mg/kg
12 | CCC(C)C(N)C(=O)OC(C)(C)Cc1ccc(Cl)cc1 (centres unmarked) [Example 12, 1-(4-Chlorophenyl)-2-methyl-2-propyl 2-amino-3-methylpentanoate] | 5.19 | 5.49 | 20 mg/kg | – | –
13 | CCC(N)C(=O)OC(C)(C)Cc1ccc(F)cc1 (centres unmarked) [Example 2, 1-(4-fluorophenyl)-2-methyl-2-propyl 2-aminobutanoate] | 5.52 | 5.15 | 10 mg/kg | – | –
14 | 1-(4-Chlorophenyl)-2-methyl-2-propyl SS/RS-2-amino-3-methylpentanoate [Example 15] | 5.10 | 5.51 | – | – | Potentiation of OTMN tremor in rat (lowest dose causing a significant potentiation) [3, 9]: 10 mg/kg
15 | CC(C)C(N)C(=O)OC(C)(C)Cc1ccc(F)cc1 (centres unmarked) [Example 13, 1-(4-Fluorophenyl)-2-methyl-2-propyl 2-amino-3-methylbutanoate] | 5.00 | 5.54 | – | 20 mg/kg | –

From US4990534A, “Aralkyl esters and processes for their preparation” (priority 1987, dated 1991)
